Measurements published in patent US8030016B2, “Method for screening for vitamin D receptor ligands” (Teijin Pharma Limited, priority 2006, dated 2011).

B1: TRAP100, endogenous protein in nuclear protein extracts (other, human, UniProt O75448 1-989, looked up)
chain: MKVVNLKQAILQAWKERWSDYQWAINMKKFFPKGATWDILNLADALLEQAMIGPSPNPLILSYLKYAISSQMVSYSSVLTAISKFDDFSRDLCVQALLDIMDMFCDRLSCHGKAEECIGLCRALLSALHWLLRCTAASAERLREGLEAGTPAAGEKQLAMCLQRLEKTLSSTKNRALLHIAKLEEASSWTAIEHSLLKLGEILANLSNPQLRSQAEQCGTLIRSIPTMLSVHAEQMHKTGFPTVHAVILLEGTMNLTGETQSLVEQLTMVKRMQHIPTPLFVLEIWKACFVGLIESPEGTEELKWTAFTFLKIPQVLVKLKKYSHGDKDFTEDVNCAFEFLLKLTPLLDKADQRCNCDCTNFLLQECGKQGLLSEASVNNLMAKRKADREHAPQQKSGENANIQPNIQLILRAEPTVTNILKTMDADHSKSPEGLLGVLGHMLSGKSLDLLLAAAAATGKLKSFARKFINLNEFTTYGSEESTKPASVRALLFDISFLMLCHVAQTYGSEVILSESRTGAEVPFFETWMQTCMPEEGKILNPDHPCFRPDSTKVESLVALLNNSSEMKLVQMKWHEACLSISAAILEILNAWENGVLAFESIQKITDNIKGKVCSLAVCAVAWLVAHVRMLGLDEREKSLQMIRQLAGPLFSENTLQFYNERVVIMNSILERMCADVLQQTATQIKFPSTGVDTMPYWNLLPPKRPIKEVLTDIFAKVLEKGWVDSRSIHIFDTLLHMGGVYWFCNNLIKELLKETRKEHTLRAVELLYSIFCLDMQQVTLVLLGHILPGLLTDSSKWHSLMDPPGTALAKLAVWCALSSYSSHKGQASTRQKKRHREDIEDYISLFPLDDVQPSKLMRLLSSNEDDANILSSPTDRSMSSSLSASQLHTVNMRDPLNRVLANLFLLISSILGSRTAGPHTQFVQWFMEECVDCLEQGGRGSVLQFMPFTTVSELVKVSAMSSPKVVLAITDLSLPLGRQVAAKAIAAL

Columns and labels:
[1] = test system: human CYP24 gene promoter; test: Dual luciferase assay, human CYP24 gene promoter in HOS cells; type: cell-based; settings: 10^−8 M, 24 hours
Method: (§1) In order to determine whether or not CDP expression increases VDR ligand-dependent transcription activity, a dual luciferase assay was performed using transient transfection in the same manner as Example 6. The reporter vector used in the dual luciferase assay was a pGL4 vector containing a sequence of human CYP24 gene promoter or a sequence of a human osteocalcin gene promoter upstream of the luciferase gene. The pGL4 vector was commercially obtained from Promega. Furthermore, a DNA sequence encoding a region of 4-427 amino acid residues for human VDR was introduced into a pTracerCMV2 vector (Invitrogen) in order to construct a human VDR expression plasmid. The expression vector for intracellular expression of the CDP protein was the pSPORT6-CDP vector used in Example 4. HOS cells used in the assay were cultured in DMEM medium containing 10% FBS and were passaged every two or three days. The culturing conditions were 37° C., 5% CO2. […] The medium was removed after 24 hours and after washing once in PBS(−), luciferase activity was determined by a Dual-Luciferase Assay kit (Promega) using a luminometer (Bethold Japan). The results were expressed as a “transcription activation” being the value represented by (firefly luciferase activity)/(renilla luciferase activity). […]

[2] = test system: HOS-TE85 cells; test: Differentiation of HOS-TE85 cells in culture; type: cell-based; settings: culturing in the presence of the compound
[3] = test system: HeLa cells; test: Differentiation of HeLa cells in culture; type: cell-based; settings: culturing in the presence of the compound
[4] = test system: HOS cells; test: Gene expression in HOS cells transfected with pSPORT6-CDP, real-time RT-PCR; type: cell-based, human; settings: HOS cells with CDP introduced, various concentrations, three days, relative to GAPDH
Method: After three days, cells were recovered, and total RNA was extracted using an RNeasy Mini Kit (QIAGEN, Product No. 74104). Reverse transcription reactions were performed by oligo dT primers using SuperScriptlll RT (Invitrogen, 18080-044) and the amount of expression of various genes was determined using real-time RT-PCR (Applied Biosystems, GeneAmp7000). The amount of gene expression was corrected using GAPDH which is a housekeeping gene and shown as a relative figure of GAPDH and the amount of respective gene expression. The formula used is the same as that used in Example 5.

[5] = test system: MCF-7 cells; test: Differentiation of MCF-7 cells in culture; type: cell-based; settings: culturing in the presence of the compound
[6] = test system: SaM-1 cells; test: Alkaline phosphatase staining of SaM-1 cells infected with Ad-CDP or Ad-mock; settings: 10^−8−10^−7 M, seven days
Method: The cells were used to inoculate a 24 well multi-well plate and cultured. When the cells reached 80% confluence, the medium was exchanged for a proliferation medium containing the virus, cultured overnight in order to infect the cells with the virus. Then the medium was exchange for a proliferation medium not containing a virus. […] The medium was exchanged every two days and cultured for seven days. After seven days culturing, alkaline phosphatase staining was performed.

[7] = test system: SaM-1 cells; test: Gene expression during osteoblast differentiation of SaM-1 cells, real-time RT-PCR; type: cell-based, human; settings: various concentrations, up to 28 days, relative to beta actin
From the text: The medium was replaced every 2 to 3 days. Cells were recovered at the fourth day, seventh day, fourteenth day, and twenty-eighth day until the final differentiation (calcification) on the twenty-eighth day. Total RNA was extracted using an RNeasy Mini Kit (QIAGEN, Product No. 74104) and cDNA synthesized using an Ommniscript RTKit (QIAGEN, Product No. 205110). The cDNA was mixed with SYBR Green PCR Master Mix (Applied Biosystems, Product No. 4367659) and primer oligos suitable for amplifying various types of genes. Variation in the gene expression of the alkaline phosphatase which is a marker for osteoblast differentiation, CDP and osteocalcin, and beta actin which is known as a universally expressed housekeeping gene was examined by real-time RT-PCR using a GeneAmp 5700 Sequence Detection System (Applied Biosystems) or ABI PRISM 7000 Sequence Detection System (Applied Biosystems). Oligos complementary to the various genes were designed by general methods and synthesized by Sigma Genosys. The results are shown by relative values with respect to the amount of expression of beta actin. […] The value for the relative amount of expression is calculated using the formula 2^−(ΔΔCT of target gene−ΔΔCT of beta actin).

[8] = test system: human osteocalcin gene promoter; test: Dual luciferase assay, human osteocalcin gene promoter in HOS cells; type: cell-based; settings: 10^−8 M, 24 hours, endogenous VDR
Method: as §1

[9] = molecular target: T1, CCAAT Displacement Protein (CDP), endogenous protein in nuclear protein extracts (human, UniProt P39880 1-1505, limits assumed); test: immunoprecipitation with anti-CDP antibody of the glutathione eluate of GST-VDR-bound HOS nuclear proteins (with 1,25(OH)2D3); western blot
T1 construct: Endogenous protein of nuclear extracts from HOS (human osteoblast cell strain), HeLa or Caco-2 cells; also called CUTL1; CUX
T1 sequence (P39880 whole entry): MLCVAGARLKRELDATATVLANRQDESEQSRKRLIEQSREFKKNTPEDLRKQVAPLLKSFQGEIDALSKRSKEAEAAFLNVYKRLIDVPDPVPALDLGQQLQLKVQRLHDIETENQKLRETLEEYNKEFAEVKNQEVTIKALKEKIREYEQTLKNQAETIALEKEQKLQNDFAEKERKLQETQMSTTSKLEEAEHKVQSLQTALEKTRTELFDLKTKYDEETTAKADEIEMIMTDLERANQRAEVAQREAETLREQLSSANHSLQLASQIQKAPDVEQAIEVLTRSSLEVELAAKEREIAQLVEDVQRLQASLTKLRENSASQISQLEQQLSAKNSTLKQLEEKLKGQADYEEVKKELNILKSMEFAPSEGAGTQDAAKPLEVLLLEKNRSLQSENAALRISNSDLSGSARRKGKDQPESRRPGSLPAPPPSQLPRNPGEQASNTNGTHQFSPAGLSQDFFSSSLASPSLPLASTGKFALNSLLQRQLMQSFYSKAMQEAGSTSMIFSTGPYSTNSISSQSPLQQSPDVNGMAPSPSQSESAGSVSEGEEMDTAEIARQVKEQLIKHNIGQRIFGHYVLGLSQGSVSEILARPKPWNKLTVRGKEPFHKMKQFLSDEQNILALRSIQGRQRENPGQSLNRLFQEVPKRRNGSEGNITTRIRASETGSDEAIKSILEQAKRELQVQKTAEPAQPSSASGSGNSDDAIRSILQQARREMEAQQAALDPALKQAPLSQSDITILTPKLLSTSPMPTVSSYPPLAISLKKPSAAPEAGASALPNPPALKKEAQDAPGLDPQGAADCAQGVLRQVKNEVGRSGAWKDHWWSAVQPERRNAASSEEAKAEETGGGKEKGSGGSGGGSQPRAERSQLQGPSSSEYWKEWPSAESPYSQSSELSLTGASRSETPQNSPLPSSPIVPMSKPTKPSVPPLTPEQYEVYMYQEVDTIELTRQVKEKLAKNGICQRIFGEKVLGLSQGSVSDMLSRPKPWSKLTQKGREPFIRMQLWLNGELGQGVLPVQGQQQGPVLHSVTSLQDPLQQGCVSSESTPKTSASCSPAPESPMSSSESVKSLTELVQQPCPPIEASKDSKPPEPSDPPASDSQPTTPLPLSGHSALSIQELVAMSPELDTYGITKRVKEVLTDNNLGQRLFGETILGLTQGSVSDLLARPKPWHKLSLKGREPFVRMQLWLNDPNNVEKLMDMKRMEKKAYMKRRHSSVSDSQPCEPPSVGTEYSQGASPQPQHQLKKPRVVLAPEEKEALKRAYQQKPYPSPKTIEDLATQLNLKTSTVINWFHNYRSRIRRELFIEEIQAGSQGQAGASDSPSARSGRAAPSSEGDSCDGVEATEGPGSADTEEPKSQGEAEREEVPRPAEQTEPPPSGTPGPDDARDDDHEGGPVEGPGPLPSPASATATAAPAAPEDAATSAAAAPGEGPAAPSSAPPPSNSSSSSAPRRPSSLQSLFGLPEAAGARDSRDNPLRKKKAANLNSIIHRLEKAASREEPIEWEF

Molecule | VDR-mediated transcription activation of a human CYP24 promoter [1] | VDR-mediated transcription activation of a human CYP24 promoter when CDP is expressed ([1]; pSPORT6-CDP co-transfected) | cell differentiation [2] | cell differentiation [3] | gene expression of CYP24 [4] | gene expression of alkaline phosphatase (ALP) [4] | gene expression of osteocalcin [4] | cell differentiation [5] | number of alkaline phosphatase-positive cells ([6]; Ad-CDP group (CDP over-expressed)) | number of alkaline phosphatase-positive cells ([6]; Ad-mock group) | gene expression of CDP [7] | gene expression of osteocalcin [7] | VDR-mediated transcription activation of a human osteocalcin promoter [8] | VDR-mediated transcription activation of a human osteocalcin promoter when CDP is expressed ([8]; pSPORT6-CDP co-transfected) | binding result [9]
C=C1/C(=C\C=C2/CCC[C@]3(C)[C@@H]([C@H](C)CCCC(C)(C)O)CC[C@@H]23)C[C@@H](O)C[C@@H]1O [1,25 (OH)2D3, 1α,25-dihydroxyvitamin D3] | increases | further increased when CDP is expressed | differentiate | this type of action was not seen | increased | increased | increased | this type of action was not seen | conspicuously higher increase in the number of alkaline phosphatase-positive cells | increase in the number of alkaline phosphatase-positive cells | increase | increase | increases | further increased when CDP is expressed | –
B1 | – | – | – | – | – | – | – | – | – | – | – | – | – | – | no binding
